What was measured:
Type in all cases: physicochemical
Details in all cases: 25° C.
[1] = Saturation concentration of NK1 receptor antagonists in olive oil
Description: (§1) Each of said mixtures was continuously and gently stirred for 10 minutes at ambient temperature (25° C.) and then maintained at rest for 60 minutes. The saturation concentration was considered to be that which was immediately lower in the aforementioned series than a concentration where deposition was observed, but in which no deposition of the active ingredient was observed.

[2] = Saturation concentration in olive oil:ethanol (9:1)
Description: as §1, with “less” for “lower in the aforementioned series”

[3] = Saturation concentration in different oils (soy, sunflower, rapeseed)
Description: as §1, with “less” for “lower in the aforementioned series”

Saturation concentration [1] [nM] | Saturation concentration [2] [nM] | Saturation concentration ([3]; Rapeseed oil) [nM] | Saturation concentration ([3]; Soy oil) [nM] | Saturation concentration ([3]; Sunflower oil) [nM] | Compound
40 | 65 | 70 | 60 | 60 | CC(=O)N1CCN([C@H]2CCN(C(=O)N(C)[C@H](C)c3cc(C(F)(F)F)cc(C(F)(F)F)c3)[C@@H](c3ccc(F)cc3C)C2)CC1 [Casopitant]
80 | 100 | 90 | 90 | 80 | CC(=O)N[C@@H](Cc1c[nH]c2ccccc12)C(=O)OCc1cc(C(F)(F)F)cc(C(F)(F)F)c1 [L-732,138]
